Drawing on patent US6335339B1, “Triazine antiviral compounds” (Scriptgen Pharmaceuticals, Inc., priority 1998, dated 2002), this text covers CC50 for 22 compounds.

As usually defined, the CC50 is the concentration at which the toxic effect on the cells reaches its halfway point.

For the data set, the system named is 2.2.15 cells. Nature of the data set: neutral red dye uptake cytotoxicity. The class given is cell-based. The note with it: 9 days treatment, read-out: 50% Cell Death CC50. How it is done: Further, the antiviral effect of any compound must be measured against its toxicity. Cytotoxicity is measured by the neutral red uptake method using the same cells used for antiviral activity.
2b. Compounds were prepared for toxicity treatment as follows: For each compound, a total of 4 concentrations were examined. This required 9 sets of 4 sterile, 1.1 ml minitubes (36 tubes per compound). Into the first tube of each set, sufficient compound was aliquoted to make up 465 μl of the highest test concentration. The other tubes were left empty. The tubes were covered with the rack lids, and stored at −20° C. or at an appropriate temperature. Tubes for the last day of treatment for toxicity testing contain the same amount of compound as used the previous days (not 3xas for the antiviral assays).
3b. The cytotoxicity of test compounds was analyzed in a 3.3-fold dilution series as follows. […] (155 μl×3) of RP2 were added to the first tube (containing the aliquot of compound) and 310 μL (155 μl×2) RP2 to each of the 3 remaining tubes. 150 μl of test compound-containing medium were serially transferred from the first tube to the other 3 tubes.
5. A single plate was used for the toxicity treatments for each test compound (up to 7 compounds per plates since the top row were reserved for untreated cells on every toxicity plate). To initiate the treatments, the culture medium was removed, and 100 μl of each dilution of every compound were added to each of 3 wells using a configuration similar to that shown above for the antiviral treatments. The untreated cells received 100 μl RP2 per well. Treatment was repeated daily for 9 days.
The antiviral effect of any compound was evaluated relative to its toxicity. Cells were seeded and treated following the guidelines above, after which a neutral red dye uptake assay was performed to assess toxicity as described below. Other assays of cytotoxicity (e.g., MTT) can be substituted for the procedure described below. Note that this procedure assesses toxicity under culture and treatment conditions which are identical to those used for the antiviral analyses, thereby permitting a determination as to whether the reduction in virus production due to a specific antiviral effect or due to a cytotoxic effect on the host cell. Since the cultures, by necessity, are at confluence, the cytotoxic effects of the test compounds will probably be reduced relative to the cytotoxic effects that would be expected for actively dividing cells.
1. Cultures were treated with test compounds on the designated toxicity plates as described above.
2. The culture medium was carefully removed 24 hours following the 9th day of treatment. The monolayer was fully removed in the top left three wells (row A, col. 1-3). These wells were used as “blanks” for the plate reader.
3. 100 μl DPBS (containing 0.01% neutral red dye) were added to each well, including the empty wells, and Incubated in the tissue culture incubator for 30 minutes.
4. The dye was removed carefully and gently, using a multichannel pipetman since the monolayers can become fragile after incubation with neutral red dye. 200 μl DPBS were added to all the wells taking care not to displace the monolayers. The DPBS was removed and 100 μl 50% EtOH/1% glacial acetic acid (in H2O) were added to each well. The plates were mixed for 15 minutes on an orbital platform shaker (120-150 RPM) to allow for full extraction of the dye from the cells.
5. Optical absorbance at 510 nm was read in an ELISA type plate reader, using the 3 empty wells to set the background. An average absorbance value was calculated for the 9 untreated cultures on a plate, and the absorbance of dye for the treated cultures on the same plate was expressed as a percentage of that value. This procedure was repeated for each individual plate. […]
Regarding `CCN(CC)c1nc(NN=Cc2c(O)ccc3ccccc23)nc(Nc2ccccc2)n1` [Compound 171], the CC50 amounted to 174 µM.

For the compound `CCN(CC)CCNc1ccc2c3c(cccc13)C(=O)N(Nc1nc(NCc3ccccc3)nc(N(CC)CC)n1)C2=O` [Compound 27], the CC50 is more than 300 µM.

Consider `Cc1ccc(Nc2nc(NN=Cc3cc(I)ccc3O)nc(Nc3ccccc3)n2)c(C)c1` [Compound 159], for which the CC50 came to 101 µM.

For `Cc1ccc(Nc2nc(NCc3ccccc3)nc(NN=Cc3ccccc3F)n2)cc1C` [Compound 228], the half-maximal cytotoxic concentration (CC50) worked out at 243 µM.

For `CNc1nc(NN=Cc2cc(Cl)ccc2O)nc(Nc2ccccc2)n1` [Compound 245], the 50% cytotoxic concentration (CC50) was determined as 137 µM.

`CCCCN(CCCC)c1nc(NN=Cc2cccc(Cl)c2)nc(Nc2ccc([N+](=O)[O-])cc2)n1` [Compound 35]: the CC50 was found to be 3.9 µM.

With `Oc1ccc(I)cc1C=NNc1nc(NCc2ccccc2)nc(Nc2ccccc2)n1` [Compound 33], the CC50 was found to be 50 µM.

Regarding `FC(F)(F)c1cccc(Nc2nc(Nc3ccccc3)nc(N3CCOCC3)n2)c1` [Compound 21], the half-maximal cytotoxic concentration (CC50) is 5.6 µM.

With `COc1ccccc1C=NNc1nc(NCc2ccccc2)nc(Nc2ccccc2)n1` [Compound 195], the half-maximal cytotoxic concentration (CC50) was determined as 400 µM.

For the compound `CC(C=NNc1nc(Nc2ccc([N+](=O)[O-])cc2)nc(Nc2ccc(C)c(C)c2)n1)=Cc1ccccc1` [Compound 19], the 50% cytotoxic concentration (CC50) is more than 300 µM.

As to `Clc1ccc(C=NNc2nc(Nc3ccccc3)nc(N3CCCC3)n2)cc1` [Compound 218], the 50% cytotoxic concentration (CC50) is more than 300 µM.

In the case of `CCN(CC)c1nc(NN=Cc2ccc([N+](=O)[O-])cc2)nc(Nc2ccccc2)n1` [Compound 13], the CC50 was more than 300 µM.

With `O=[N+]([O-])c1ccc(Nc2nc(NN=Cc3ccc(Br)cc3)nc(N3CCCCCC3)n2)cc1` [Compound 117], the CC50 is more than 300 µM.

Consider `COc1ccc(Nc2nc(NN=Cc3cc(Br)cc(Br)c3O)nc(N3CCOCC3)n2)cc1` [Compound 200], for which the CC50 was 309 µM.

`Oc1c(Br)cc(Cl)cc1/C=N/Nc1nc(Nc2cccc(C(F)(F)F)c2)nc(N2CCOCC2)n1` [Compound 34]: the CC50 stood at 41 µM.

On to `COc1ccc(Nc2nc(NN=Cc3ccc(OC)cc3OC)nc(Nc3ccccc3)n2)cc1` [Compound 20], for which the CC50 came to 7.1 µM.

As to `Cc1cccc(C(=O)Oc2ccc(C=NNc3nc(N4CCCCC4)nc(N4CCCCC4)n3)cc2)c1` [Compound 181], the cytotoxic concentration (CC50) is more than 300 µM.

With `C(=Cc1ccccc1)C=NNc1nc(Nc2ccccc2)nc(N2CCCC2)n1` [Compound 213], the CC50 is more than 300 µM.

On to `CC(=NNc1nc(NCc2ccccc2)nc(Nc2ccccc2)n1)c1ccc([N+](=O)[O-])cc1` [Compound 182], for which the half-maximal cytotoxic concentration (CC50) is more than 300 µM.

With `CCCCN(CCCC)c1nc(NN=Cc2ccc3c(c2)OCO3)nc(Nc2ccc([N+](=O)[O-])cc2)n1` [Compound 11], the CC50 stood at 27 µM.

On to `O=C(CSc1nc(SCC(=O)Nc2ccccc2C(F)(F)F)nc(SCC(=O)Nc2ccccc2C(F)(F)F)n1)Nc1ccccc1C(F)(F)F` [Compound 212], for which the cytotoxic concentration (CC50) is more than 300 µM.

Regarding `CN(C)c1nc(NCc2ccccc2)nc(NN=Cc2ccc(Cl)cc2Cl)n1` [Compound 224], the CC50 is more than 300 µM.
